{
  "source": "paper PMC3330828",
  "about": "(2012)",
  "key": {"caspase-1": {"molecular_target": "T1, caspase-1 (Homo sapiens, UniProt P29466)", "T1 sequence (P29466 120-297)": "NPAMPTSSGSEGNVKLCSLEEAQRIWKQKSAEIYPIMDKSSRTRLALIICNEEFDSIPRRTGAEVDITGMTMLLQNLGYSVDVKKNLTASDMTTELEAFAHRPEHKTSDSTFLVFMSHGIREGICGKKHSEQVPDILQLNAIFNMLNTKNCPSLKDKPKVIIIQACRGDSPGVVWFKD", "T1 sequence (P29466 317-404)": "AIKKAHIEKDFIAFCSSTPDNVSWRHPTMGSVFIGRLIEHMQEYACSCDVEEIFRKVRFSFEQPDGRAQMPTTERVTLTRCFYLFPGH", "experiment": "in vitro fluorometric enzyme assay", "format": "biochemical"}, "caspase-3": {"molecular_target": "T2, caspase-3 (Homo sapiens, UniProt P42574)", "T2 sequence (P42574 29-175)": "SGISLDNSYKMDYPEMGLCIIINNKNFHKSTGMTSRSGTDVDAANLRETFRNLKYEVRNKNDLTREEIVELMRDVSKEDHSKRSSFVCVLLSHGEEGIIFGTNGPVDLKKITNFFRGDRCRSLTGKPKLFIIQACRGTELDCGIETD", "T2 sequence (P42574 176-277)": "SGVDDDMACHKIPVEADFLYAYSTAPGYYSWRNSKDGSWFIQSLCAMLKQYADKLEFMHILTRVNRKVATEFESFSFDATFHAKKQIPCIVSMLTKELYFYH", "experiment": "in vitro fluorometric enzyme assay", "format": "biochemical"}},
  "data": [
    {"substance": "berkedrimane A [compound 1]", "values": [
      {"measurement": "IC50", "setting": "caspase-1", "value": 100, "unit": "µM"},
      {"measurement": "IC50", "setting": "caspase-3", "value": 200, "unit": "µM"}
    ]},
    {"substance": "berkedrimane B [compound 2]", "values": [
      {"measurement": "IC50", "setting": "caspase-1", "value": 90, "unit": "µM"},
      {"measurement": "IC50", "setting": "caspase-3", "value": 50, "unit": "µM"}
    ]}
  ]
}
